{"source": "patent US10828266B2", "about": "“Topical regional neuro-affective therapy with caryophyllene” (Afgin Pharma, LLC, priority 2016, dated 2020)", "key": {"[1]": {"molecular_target": "cannabinoid receptor type-1 (CB1) (Homo sapiens, UniProt P21554)", "sequence (P21554 whole entry)": "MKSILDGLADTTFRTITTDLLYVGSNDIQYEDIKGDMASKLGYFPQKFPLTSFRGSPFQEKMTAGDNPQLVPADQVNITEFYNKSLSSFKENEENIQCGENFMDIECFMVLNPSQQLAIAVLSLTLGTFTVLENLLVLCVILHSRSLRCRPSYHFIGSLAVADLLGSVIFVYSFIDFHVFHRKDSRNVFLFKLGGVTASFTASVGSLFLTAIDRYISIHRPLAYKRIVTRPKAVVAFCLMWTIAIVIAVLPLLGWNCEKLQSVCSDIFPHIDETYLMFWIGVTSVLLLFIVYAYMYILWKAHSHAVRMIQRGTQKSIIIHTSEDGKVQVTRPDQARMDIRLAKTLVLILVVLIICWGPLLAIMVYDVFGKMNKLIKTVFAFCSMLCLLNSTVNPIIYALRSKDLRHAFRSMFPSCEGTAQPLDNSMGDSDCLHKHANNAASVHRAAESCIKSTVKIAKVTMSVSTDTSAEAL", "conditions": "centrally expressed receptor; background statement; cited from earlier work"}, "[2]": {"molecular_target": "CB2 receptors (Homo sapiens, UniProt P34972)", "sequence (P34972 whole entry)": "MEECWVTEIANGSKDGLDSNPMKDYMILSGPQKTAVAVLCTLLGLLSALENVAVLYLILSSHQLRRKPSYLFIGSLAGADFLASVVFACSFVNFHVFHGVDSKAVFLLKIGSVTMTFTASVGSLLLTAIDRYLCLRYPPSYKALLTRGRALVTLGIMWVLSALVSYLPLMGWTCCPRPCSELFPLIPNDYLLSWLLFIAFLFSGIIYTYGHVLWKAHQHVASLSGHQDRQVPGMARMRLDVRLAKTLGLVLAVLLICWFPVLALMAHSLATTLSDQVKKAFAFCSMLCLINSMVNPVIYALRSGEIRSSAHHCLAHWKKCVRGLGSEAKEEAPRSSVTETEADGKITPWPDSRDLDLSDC", "conditions": "background statement; cited from earlier work"}, "[3]": {"tested_on": "human patients", "assay": "Inventor's observation of onset and duration of therapeutic effect after administration of caryophyllene at the back of the neck", "assay_type": "in vivo", "description": "The inventor has observed rapid therapeutic onset of action, generally, less than 10 to 15 minutes administration of caryophyllene at the back of the neck, with maximal benefit noted well within 30 minutes. In certain embodiments, a prolonged therapeutic effect has been noted, e.g., about 4 to about 12 hours or more, depending on condition and severity of the condition being treated."}, "[4]": {"tested_on": "human patients", "assay": "Topical Cari-Derm (3% caryophyllene) on the back of the neck of human patients, case series of Table 1", "assay_type": "in vivo", "description": "(§1) The following patients were treated with a topical caryophyllene formulation (referred to in Table 1 as “Cari-Derm”, which is a topical 3% caryophyllene formulation) administered on the back of the neck on human patients, as more specifically described below in Table 1. The 3% Cari-Derm formulation contained approximately 30 mg of caryophyllene in a unit dose (1 gram)."}, "[5]": {"tested_on": "human patients", "assay": "Response to earlier or current medication as given in the patient history of Table 1", "assay_type": "in vivo", "conditions": "patient 11, autism and seizures with poor vision and focus", "description": "as §1"}}, "data": [{"molecule": "C=C1CC/C=C(\\C)CC[C@@H]2[C@@H]1CC2(C)C", "note": "(relative stereo) [caryophyllene, trans-(1R,9S)-8-Methylene-4,11,11-trimethylbicyclo[7.2.0]undec-4-ene]", "values": [{"measurement": "binding to cannabinoid receptor type-1 (CB1)", "setting": "[1]", "result": "does not bind"}, {"measurement": "action on CB2 receptors", "setting": "[2]", "result": "acts on CB2 receptors"}, {"measurement": "maximal benefit noted", "setting": "[3]", "result": "≤ 30", "unit": "min"}, {"measurement": "therapeutic onset of action", "setting": "[3]; generally", "result": "10 to 15", "unit": "min"}]}, {"molecule": "CN1CCc2cccc3c2[C@H]1Cc1ccc(O)c(O)c1-3", "note": "[Apomorphine, apomorphine]", "values": [{"measurement": "neck range of motion and pain on adding topical apomorphine", "setting": "[4]; patient 14, torticollis with neck pain, apomorphine added after Cari-Derm", "result": "improved further."}, {"measurement": "tremors, focus, talkativeness with added Apomorphine", "setting": "[4]; patient 20, Parkinson's disease, Apomorphine 5 mg after Cari-Derm", "result": "Cari-Derm; further improved"}, {"measurement": "focus, spontaneity, gait after additional Apomorphine", "setting": "[4]; patient 23, poor focus, impulsivity, gait problems from Parkinson's, additional 5 mg Apomorphine after Cari-Derm", "result": "further improvement noted."}]}, {"molecule": "C=C(C)[C@@H]1CCC(C)=C[C@H]1c1c(O)cc(CCCCC)cc1O", "note": "[CBD, cannabidiol]", "values": [{"measurement": "patient's comparison of CBD with Cari-Derm for headache", "setting": "[4]; patient 35, chronic headaches and ADHD, uses topical CBD cream", "result": "CBD worked better."}]}, {"molecule": "COC(=O)C(c1ccccc1)C1CCCCN1", "note": "(stereo not shown) [Ritalin, methylphenidate]", "values": [{"measurement": "agitation on earlier medication", "setting": "[5]", "result": "benefit; increased agitation"}]}, {"molecule": "amphetamine, dextroamphetamine mixed salts [Adderall]", "values": [{"measurement": "agitation on earlier medication", "setting": "[5]", "result": "benefit; increased agitation"}]}]}
